Activity calls are given as the source filed them. No cut-off for these calls is given here.
Key:
[1] = test system: U-87 MG; assay: Cytotoxicity against human U-87 MG cells by sulforhodamine B assay; type: functional, cell-based, U-87MG ATCC
[2] = test system: SH-SY5Y; assay: Cytotoxicity against human SH-SY5Y cells using best fit nonlinear regression analysis; type: functional, cell-based
[3] = test system: U-87 MG; assay: Cytotoxicity against human U-87 MG cells assessed as cell viability at 5 uM upto 72 hrs by MTT assay; type: functional, U-87MG ATCC; settings: time hrs <=72, read-out: Activity
[4] = test system: U-251; assay: Cytotoxicity against human U-251 cells by sulforhodamine B assay; type: functional, cell-based
[5] = test system: SH-SY5Y; assay: Cytotoxicity against human SH-SY5Y cells assessed as cell viability using raw interpretation method; type: functional, cell-based
[6] = test system: SH-SY5Y; assay: Cytotoxicity against human SH-SY5Y cells assessed as cell viability at 5 uM upto 72 hrs by MTT assay; type: functional; settings: time hrs <=72, read-out: Activity
[7] = test system: SH-SY5Y; assay: Cytotoxicity against human SH-SY5Y cells assessed as cell viability at 10 uM upto 72 hrs by MTT assay; type: functional; settings: time hrs <=72, read-out: Activity
[8] = test system: U-87 MG; assay: Cytotoxicity against human U-87 MG cells assessed as cell viability using raw interpretation method; type: functional, cell-based, U-87MG ATCC
[9] = test system: U-87 MG; assay: Cytotoxicity against human U-87 MG cells assessed as cell viability at 10 uM upto 72 hrs by MTT assay; type: functional, U-87MG ATCC; settings: time hrs <=72, read-out: Activity
[10] = test system: U-87 MG; assay: Cytotoxicity against human U-87 MG cells using best fit nonlinear regression analysis; type: functional, cell-based, U-87MG ATCC
[11] = test system: SH-SY5Y; assay: Cytotoxicity against human SH-SY5Y cells assessed as TMZ-induced cell death at 1.4 uM cotreated with 176 uM of TMZ incubated upto 72 hrs by MTT assay; type: functional, cell-based; settings: time hrs <=72
[12] = test system: U-87 MG; assay: Cytotoxicity against human U-87 MG cells assessed as TMZ-induced cell death at 0.35 to 2.8 uM cotreated with 176 to 704 uM of TMZ incubated upto 72 hrs by MTT assay; type: functional, cell-based; settings: U-87MG ATCC, dose 0.35-2.8 µM, time hrs <=72
[13] = test system: U-87 MG; assay: Induction of morphological changes in human U-87 MG cells assessed as appearance of undergoing apoptosis at 1408 uM measured after 72 hrs by phase contrast microscopy; type: functional, U-87MG ATCC
[14] = test system: U-87 MG; assay: Induction of morphological changes in human U-87 MG cells assessed as appearance of shrunken cell bodies at 1408 uM measured after 72 hrs by phase contrast microscopy; type: functional, U-87MG ATCC
[15] = test system: U-87 MG; assay: Cytotoxicity against human U-87 MG cells assessed as TMZ-induced cell death at 4.2 uM cotreated with 1408 uM of TMZ incubated upto 72 hrs by MTT assay; type: functional, cell-based; settings: U-87MG ATCC, time hrs <=72
[16] = test system: U-87 MG; assay: Effect on cell morphology in human U-87 MG cells at 4.2 uM cotreated with 1408 uM of TMZ measured after 72 hrs by phase contrast microscopy; type: functional, cell-based; settings: U-87MG ATCC
[17] = test system: U-87 MG; assay: Induction of morphological changes in human U-87 MG cells assessed as cell death at 4.2 uM cotreated with 1408 uM of TMZ measured after 72 hrs by phase contrast microscopy; type: functional, U-87MG ATCC
[18] = test system: U-87 MG; assay: Induction of morphological changes in human U-87 MG cells assessed as membrane blebbing at 1408 uM measured after 72 hrs by phase contrast microscopy; type: functional, U-87MG ATCC

## CC(C)C[C@@H]1NC(=O)CNC(=O)[C@H](CC(N)=O)NC(=O)[C@H](CCCNC(=N)N)NC(=O)[C@H]([C@@H](C)O)NC(=O)[C@@H]2CSSC[C@@H]3NC(=O)[C@H]([C@@H](C)O)NC(=O)CNC(=O)CNC(=O)[C@H](C(C)C)NC(=O)[C@@H]4CSSC[C@H](NC(=O)[C@H]([C@@H](C)O)NC(=O)[C@H](CSSC[C@H](NC(=O)[C@H](C(C)C)NC(=O)[C@@H]5CCCN5C1=O)C(=O)NCC(=O)N[C@@H](CCC(=O)O)C(=O)N[C@@H]([C@@H](C)O)C(=O)N4)NC(=O)CNC(=O)[C@@H]1CCCN1C(=O)[C@H]([C@@H](C)O)NC(=O)[C@H](CC(N)=O)NC3=O)C(=O)N[C@@H](CO)C(=O)N[C@@H](Cc1c[nH]c3ccccc13)C(=O)N1CCC[C@H]1C(=O)N[C@@H](C(C)C)C(=O)N2
[1]
  IC50: 3.21 µM
[2]
  IC50: 5.56 µM
[3]
  viability at 5 µM: 60%
[4]
  IC50: 10.9 µM
[5]
  IC50: 6.05 µM
[6]
  viability at 5 µM: 60%
[7]
  viability at 10 µM: 20%
[8]
  IC50: 7.97 µM
[9]
  viability at 10 µM: 40%
[10]
  IC50: 7.93 µM

## CC(C)C[C@@H]1NC(=O)CNC(=O)[C@H](CC(N)=O)NC(=O)[C@H](CCCNC(=N)N)NC(=O)[C@H](CO)NC(=O)[C@@H]2CSSC[C@@H]3NC(=O)[C@H]([C@@H](C)O)NC(=O)CNC(=O)CNC(=O)[C@H](C(C)C)NC(=O)[C@@H]4CSSC[C@H](NC(=O)[C@H]([C@@H](C)O)NC(=O)[C@H](CSSC[C@H](NC(=O)[C@H](C(C)C)NC(=O)[C@@H]5CCCN5C1=O)C(=O)NCC(=O)N[C@@H](CCC(=O)O)C(=O)N[C@@H]([C@@H](C)O)C(=O)N4)NC(=O)CNC(=O)[C@@H]1CCCN1C(=O)[C@H]([C@@H](C)O)NC(=O)[C@H](CC(N)=O)NC3=O)C(=O)N[C@@H](CO)C(=O)N[C@@H](Cc1c[nH]c3ccccc13)C(=O)N1CCC[C@H]1C(=O)N[C@@H](C(C)C)C(=O)N2
[11]
  Activity: Active
[2]
  IC50: 2.88 µM
[3]
  viability at 5 µM: 29.6%
[4]
  IC50: 37.2 µg/mL
[5]
  IC50: 3.53 µM
[12]
  Activity: Active
[13]
  Activity: 40%
[14]
  Activity: 40%
[15]
  Activity: Active
[6]
  viability at 5 µM: 13.2%
[16]
  Activity: Active
[8]
  IC50: 3.76 µM
[17]
  Activity: 50%
[10]
  IC50: 2.91 µM
[18]
  Activity: 40%

From ChEMBL document CHEMBL5046264, “Cyclotides Chemosensitize Glioblastoma Cells to Temozolomide” (J Nat Prod, 2022)
